Test results reported in patent US10239843B2 (CANCER RESEARCH TECHNOLOGY LIMITED, priority 2014, dated 2019).
Read-outs that look alike come from different tables or passages of the source.

Tests used:
Human Full Length ARH3 = Human Full Length ARH3 (Homo sapiens (Human), UniProt Q9NX46); test: ARH3 in vitro selectivity assay (TR-FRET); format: biochemical; conditions: read-out: ARH3 Biochem IC50
Description: ARH3 In vitro selectivity assays were conducted in a total volume of 15 ul in a standard 384 well format.

Human Full Length PARG = Human Full Length PARG (Homo sapiens (Human), UniProt Q86W56); test: PARG enzyme assay (TR-FRET); format: biochemical
[1] = molecular target: Human High specific Activity PARP1 (Homo sapiens (Human), UniProt P09874); test: PARP1 in vitro selectivity assay (histone PARylation, luminescence); format: biochemical; conditions: read-out: PARP1 Biochem IC50
Description: PARP1 In vitro selectivity assays were conducted as a 10 ul reaction volume in a NUNC Maxisorp 384-well assay plate pre-coated in-house with Histones. […] The wells were then washed with PBS/0.1% Triton X100. PARP1 activity was then detected by measuring the extent of PARylation. […] Luminescence signal was then measured immediately.

PARG in HeLa cell line = test: PARG cell assay (PAR chain immunofluorescence after MMS); format: cell-based; conditions: HeLa cells
Outline: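 Nuclear poly(ADP-ribose) chains in HeLa cells are read by indirect immunofluorescence with a mouse anti-PAR antibody applied overnight at 4° C after fixing and permeabilising. Cells get 1 h of compound, then 50 μg/mL MMS (final) for another hour. PAR persisting at that point reflects PARG inhibition.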

[2] = MMS 50 μg/mL, read-out: PARG Cell IC50 Geomean
[3] = read-out: PARG Biochem IC50 Geomean
[4] = MMS treatment, read-out: PARG Cell IC50
[5] = Homo sapiens, MMS treatment, read-out: PARG Cell IC50
[6] = Homo sapiens, MMS 50 μg/mL, read-out: PARG Cell IC50 Geomean

Sequence of Human Full Length ARH3 (Q9NX46 whole entry): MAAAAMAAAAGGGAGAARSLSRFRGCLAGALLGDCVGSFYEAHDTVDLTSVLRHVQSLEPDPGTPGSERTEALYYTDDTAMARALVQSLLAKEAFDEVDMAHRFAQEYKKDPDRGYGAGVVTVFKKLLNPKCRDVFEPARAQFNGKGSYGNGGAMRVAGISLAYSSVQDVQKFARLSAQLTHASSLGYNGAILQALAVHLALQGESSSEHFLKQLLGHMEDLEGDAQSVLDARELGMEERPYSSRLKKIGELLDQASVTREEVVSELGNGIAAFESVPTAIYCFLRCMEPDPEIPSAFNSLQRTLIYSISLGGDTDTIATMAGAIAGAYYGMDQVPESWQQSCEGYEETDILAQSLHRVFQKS
Sequence of Human Full Length PARG (Q86W56 whole entry): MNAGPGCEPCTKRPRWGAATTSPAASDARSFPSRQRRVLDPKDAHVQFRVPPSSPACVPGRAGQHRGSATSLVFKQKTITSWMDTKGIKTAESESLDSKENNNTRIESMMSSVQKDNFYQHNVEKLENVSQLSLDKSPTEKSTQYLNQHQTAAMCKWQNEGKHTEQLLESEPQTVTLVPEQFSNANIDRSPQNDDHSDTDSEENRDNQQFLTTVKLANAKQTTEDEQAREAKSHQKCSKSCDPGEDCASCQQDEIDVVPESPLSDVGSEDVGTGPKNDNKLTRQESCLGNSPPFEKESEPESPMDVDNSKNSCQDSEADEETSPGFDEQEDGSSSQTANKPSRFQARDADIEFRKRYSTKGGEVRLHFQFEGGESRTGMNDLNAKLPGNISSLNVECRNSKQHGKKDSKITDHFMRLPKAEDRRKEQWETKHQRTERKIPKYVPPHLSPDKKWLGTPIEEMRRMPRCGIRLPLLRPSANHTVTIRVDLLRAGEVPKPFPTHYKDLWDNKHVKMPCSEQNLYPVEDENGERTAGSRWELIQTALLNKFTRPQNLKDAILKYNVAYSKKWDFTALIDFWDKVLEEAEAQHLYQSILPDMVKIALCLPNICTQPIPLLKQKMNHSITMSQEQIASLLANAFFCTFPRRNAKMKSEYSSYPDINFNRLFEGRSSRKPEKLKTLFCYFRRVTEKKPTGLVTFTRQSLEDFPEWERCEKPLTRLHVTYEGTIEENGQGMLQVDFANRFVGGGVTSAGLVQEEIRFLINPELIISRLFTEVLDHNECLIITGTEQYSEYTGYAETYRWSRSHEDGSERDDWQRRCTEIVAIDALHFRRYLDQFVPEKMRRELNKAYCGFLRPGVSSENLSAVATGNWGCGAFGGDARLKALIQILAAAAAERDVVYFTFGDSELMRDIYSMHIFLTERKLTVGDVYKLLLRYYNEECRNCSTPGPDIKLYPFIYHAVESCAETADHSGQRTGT
Sequence of Human High specific Activity PARP1 (P09874 whole entry): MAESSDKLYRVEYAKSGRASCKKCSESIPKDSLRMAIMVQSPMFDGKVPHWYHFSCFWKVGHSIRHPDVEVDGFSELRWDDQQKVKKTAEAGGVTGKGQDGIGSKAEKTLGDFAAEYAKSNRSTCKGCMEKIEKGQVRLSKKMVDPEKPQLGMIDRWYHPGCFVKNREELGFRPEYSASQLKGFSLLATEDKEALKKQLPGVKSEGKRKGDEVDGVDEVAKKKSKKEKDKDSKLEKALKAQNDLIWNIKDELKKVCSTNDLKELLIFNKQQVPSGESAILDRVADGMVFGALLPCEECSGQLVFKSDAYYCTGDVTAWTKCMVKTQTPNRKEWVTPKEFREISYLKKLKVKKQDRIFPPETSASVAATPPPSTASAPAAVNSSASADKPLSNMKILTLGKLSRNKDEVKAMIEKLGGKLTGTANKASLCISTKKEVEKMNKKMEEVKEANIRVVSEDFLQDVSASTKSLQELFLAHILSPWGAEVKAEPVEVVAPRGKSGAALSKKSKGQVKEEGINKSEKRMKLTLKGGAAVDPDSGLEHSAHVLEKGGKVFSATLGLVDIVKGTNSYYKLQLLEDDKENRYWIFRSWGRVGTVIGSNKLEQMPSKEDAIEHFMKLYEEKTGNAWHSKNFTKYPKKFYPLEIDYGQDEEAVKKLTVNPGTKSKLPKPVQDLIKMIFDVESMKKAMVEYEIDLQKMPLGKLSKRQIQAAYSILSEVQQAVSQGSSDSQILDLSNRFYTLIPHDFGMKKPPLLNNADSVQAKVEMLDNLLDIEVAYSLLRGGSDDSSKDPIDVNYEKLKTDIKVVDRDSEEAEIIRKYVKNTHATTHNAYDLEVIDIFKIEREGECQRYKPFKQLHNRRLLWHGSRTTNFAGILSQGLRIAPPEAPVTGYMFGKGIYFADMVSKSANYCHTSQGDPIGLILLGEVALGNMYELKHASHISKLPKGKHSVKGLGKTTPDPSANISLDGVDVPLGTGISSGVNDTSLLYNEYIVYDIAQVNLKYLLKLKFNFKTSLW

IC50 (Human Full Length ARH3) | IC50 (Human Full Length PARG; read-out: PARG Biochem IC50) | IC50 [1] | IC50 (Human Full Length PARG; [3]) | SMILES | other results
> 150 µM | 16 nM | – | – | Cc1nnc(Cn2c(=O)c3cc(S(=O)(=O)NC4(CF)CC4)ccc3n(Cc3cnn(C)c3)c2=O)s1 [Example 630, N-[1-(Fluoromethyl)cyclopropyl]-1-[(1-methylpyrazol-4-yl)methyl]-3-[(5-methyl-1,3,4-thiadiazol-2-yl)methyl]-2,4-dioxo-quinazoline-6-sulfonamide] | IC50 (PARG in HeLa cell line; [4]): 542 nM
> 150 µM | 597 nM | – | – | Cc1cc(Cn2c(=O)c3cc(S(=O)(=O)NC4(CF)CC4)ccc3n(C)c2=O)sn1 [Example 625, N-[1-(Fluoromethyl)cyclopropyl]-1-methyl-3-[(3-methylisothiazol-5-yl)methyl]-2,4-dioxo-quinazoline-6-sulfonamide] | IC50 (PARG in HeLa cell line; [5]): 730 nM
> 150 µM | – | > 150 µM | 648 nM | Cc1cc(Cn2nc(Cc3ccccc3)c3ccc(S(=O)(=O)NC4(C)CC4)cc3c2=O)on1 [Example 298] | –
> 150 µM | 39 nM | – | – | CCCCn1c(=O)n(Cc2cnn(C)c2)c(=O)c2cc(S(=O)(=O)NC3(CF)CC3)ccc21 [Example 617, 1-Butyl-N-[1-(fluoromethyl)cyclopropyl]-3-[(1-methylpyrazol-4-yl)methyl]-2,4-dioxo-quinazoline-6-sulfonamide] | IC50 (PARG in HeLa cell line; [5]): 37 nM
> 150 µM | 17 nM | – | – | Cc1cc(Cn2c(=O)c3cc(S(=O)(=O)NC4(CF)CC4)ccc3n(Cc3sc(C)nc3C)c2=O)on1 [Example 616, 1-[(2,4-Dimethylthiazol-5-yl)methyl]-N-[1-(fluoromethyl)cyclopropyl]-3-[(3-methylisoxazol-5-yl)methyl]-2,4-dioxo-quinazoline-6-sulfonamide] | IC50 (PARG in HeLa cell line; [5]): 25 nM
– | – | – | 408 nM | Cc1cc(Cn2c(=O)c3cc(S(=O)(=O)NC4(C)CC4)ccc3n(CC3CC3(F)F)c2=O)on1 (stereo not drawn) [Example 364] | IC50 (PARG in HeLa cell line; [6]): 106 nM
– | – | – | 169 nM | Cn1cc(Cn2c(=O)c3cc(S(=O)(=O)NC4(C)CC4)ccc3n(CC3CCCO3)c2=O)cn1 (stereo not drawn) [Example 258] | IC50 (PARG in HeLa cell line; [6]): 131 nM
– | 170 nM | – | – | Cn1cc(Cn2c(=O)c3cc(S(=O)(=O)NC4(CF)CC4)ccc3n(CCC#N)c2=O)cn1 [Example 574, 1-(2-Cyanoethyl)-N-[1-(fluoromethyl)cyclopropyl]-3-[(1-methylpyrazol-4-yl)methyl]-2,4-dioxo-quinazoline-6-sulfonamide] | IC50 (PARG in HeLa cell line; [5]): 530 nM
– | 325 nM | – | – | Cc1cc(Cn2c(=O)n(Cc3cnn(C)c3)c(=O)c3cc(S(=O)(=O)NC4(C(F)F)CC4)ccc32)n(C)n1 [Example 459, N-[1-(Difluoromethyl)cyclopropyl]-1-[(2,5-dimethylpyrazol-3-yl)methyl]-3-[(1-methylpyrazol-4-yl)methyl]-2,4-dioxo-quinazoline-6-sulfonamide] | IC50 (PARG in HeLa cell line; [5]): 1250 nM
– | – | – | 353 nM | Cc1cc(Cn2c(=O)c3cc(S(=O)(=O)NC4(C)CC4)ccc3n(CC3CC(F)(F)C3)c2=O)on1 [Example 363] | IC50 (PARG in HeLa cell line; [6]): 382 nM

Second part, the molecule before the results:

SMILES | IC50 (Human Full Length ARH3) | IC50 (Human Full Length PARG; read-out: PARG Biochem IC50) | IC50 [1] | IC50 (Human Full Length PARG; [3]) | other results
Cc1oncc1Cn1c(=O)n(Cc2cnn(C)c2)c(=O)c2cc(S(=O)(=O)NC3(CF)CC3)ccc21 [Example 579, N-[1-(Fluoromethyl)cyclopropyl]-1-[(5-methylisoxazol-4-yl)methyl]-3-[(1-methylpyrazol-4-yl)methyl]-2,4-dioxo-quinazoline-6-sulfonamide] | > 150 µM | 9 nM | – | – | –
Cc1noc(C)c1Cn1c(=O)c2cc(S(=O)(=O)NC3(C)CC3)ccc2n(CC2CC2)c1=O [Example 158] | > 100 µM | – | > 150 µM | 92 nM | IC50 (PARG in HeLa cell line; [2]): 88 nM
C#CCn1c(=O)n(Cc2cnc(C)s2)c(=O)c2cc(S(=O)(=O)NC3(C)CC3)ccc21 [Example 161] | > 100 µM | – | > 150 µM | 45 nM | IC50 (PARG in HeLa cell line; [2]): 82 nM
Cc1cc(Cn2cc(C(=O)C3CC3)c3ccc(S(=O)(=O)NC4(C)CC4)cc3c2=O)on1 [Example 311, 4-(Cyclopropanecarbonyl)-N-(1-methylcyclopropyl)-2-[(3-methylisoxazol-5-yl)methyl]-1-oxo-isoquinoline-7-sulfonamide] | > 150 µM | – | > 150 µM | 549 nM | –
Cc1nnc(Cn2c(=O)c3cc(S(=O)(=O)NC4(CF)CC4)ccc3n(CCF)c2=O)s1 [Example 629, 1-(2-Fluoroethyl)-N-[1-(fluoromethyl)cyclopropyl]-3-[(5-methyl-1,3,4-thiadiazol-2-yl)methyl]-2,4-dioxo-quinazoline-6-sulfonamide] | > 150 µM | 82 nM | – | – | IC50 (PARG in HeLa cell line; [5]): 226 nM
Cc1ncsc1Cn1c(=O)n(Cc2cnn(C)c2)c(=O)c2cc(S(=O)(=O)NC3(CF)CC3)ccc21 [Example 572, N-[1-(Fluoromethyl)cyclopropyl]-3-[(1-methylpyrazol-4-yl)methyl]-1-[(4-methylthiazol-5-yl)methyl]-2,4-dioxo-quinazoline-6-sulfonamide] | > 150 µM | 7 nM | – | – | –
CCn1c(=O)n(Cc2nnc(C)s2)c(=O)c2cc(S(=O)(=O)NC3(C)CC3)ccc21 [Example 614, 1-Ethyl-N-(1-methylcyclopropyl)-3-[(5-methyl-1,3,4-thiadiazol-2-yl)methyl]-2,4-dioxo-quinazoline-6-sulfonamide] | > 150 µM | 239 nM | – | – | IC50 (PARG in HeLa cell line; [4]): 122 nM
CC1(NS(=O)(=O)c2ccc3nc(N4CCCC4)[nH]c(=O)c3c2)CC1 [Example 98] | > 150 µM | – | > 150 µM | 9440 nM | –
Cn1c(C2CC2)nc2ccc(S(=O)(=O)NC3(C)CC3)cc2c1=O [Example 80] | > 150 µM | – | > 150 µM | 2180 nM | –
Cn1cc(Cn2c(=O)c3cc(S(=O)(=O)NC4(CF)CC4)ccc3n(Cc3ccns3)c2=O)cn1 [Example 578, N-[1-(Fluoromethyl)cyclopropyl]-1-(isothiazol-5-ylmethyl)-3-[(1-methylpyrazol-4-yl)methyl]-2,4-dioxo-quinazoline-6-sulfonamide] | > 150 µM | 10 nM | – | – | –
Cn1c(=O)c(=O)n(CC2CC2)c2ccc(S(=O)(=O)NC3(C)CC3)cc21 [Example 22, 1-(Cyclopropylmethyl)-4-methyl-N-(1-methylcyclopropyl)-2,3-dioxo-quinoxaline-6-sulfonamide] | > 150 µM | – | > 150 µM | 1020 nM | –
CNc1nc2ccc(S(=O)(=O)NC3(C)CC3)cc2n(C)c1=O [Example 41, 4-Methyl-2-(methylamino)-N-(1-methylcyclopropyl)-3-oxo-quinoxaline-6-sulfonamide] | > 150 µM | – | > 150 µM | 5550 nM | –
Cc1nc(Cn2c(=O)n(Cc3nnc(C)s3)c(=O)c3cc(S(=O)(=O)NC4(CF)CC4)ccc32)no1 [Example 631, N-[1-(Fluoromethyl)cyclopropyl]-1-[(5-methyl-1,2,4-oxadiazol-3-yl)methyl]-3-[(5-methyl-1,3,4-thiadiazol-2-yl)methyl]-2,4-dioxo-quinazoline-6-sulfonamide] | > 150 µM | 121 nM | – | – | IC50 (PARG in HeLa cell line; [5]): 706 nM
Cn1c(=O)c2cc(S(=O)(=O)NC3(C)CC3)ccc2n(Cc2cncs2)c1=O [Example 143] | – | – | – | 342 nM | IC50 (PARG in HeLa cell line; [2]): 538 nM
Cc1ncc(Cn2c(=O)c3cc(S(=O)(=O)NC4(C)CC4)ccc3n(C)c2=O)s1 [Example 109] | – | – | – | 483 nM | IC50 (PARG in HeLa cell line; [6]): 288 nM
CC(C)n1c(=O)n(Cc2cnn(C)c2)c(=O)c2cc(S(=O)(=O)NC3(C)CC3)ccc21 [Example 292] | – | – | – | 341 nM | IC50 (PARG in HeLa cell line; [6]): 221 nM
